Measured values taken from US8759500B2, “Crystalline forms of a macrolide, and uses therefor” (Cempra Pharmaceuticals, Inc., priority 2010, dated 2014).
≈ marks a conversion by molar mass, not a printed value. Read-outs that look alike come from different tables or passages of the source.

How the values were obtained:
[1] = female, Balb/c, mouse, in vivo, po
[2] = Stability of Form I and Form II under various storage conditions; type: physicochemical; settings: during the entire study, all storage conditions
Description: In each case, the test material was first placed in Primary Packaging Material (LLDPE bag within a HMHDPE/LDPE/LDPE blend bag, and then heat sealed). The Primary Packaging Material was placed in Secondary Packaging Material (HDPE drum). All other impurities were less than 1% at each time point.

[3] = Balb/c, mouse, in vivo, po, 20 mg/kg
Procedure: (§1) The doses were prepared as 2.0 mg/mL or 10.0 mg/mL in a vehicle of 0.5% (w/v) carboxymethyl cellulose in water and a dose volume of 10 mL/kg b.w. Blood samples were collected at various time points during the next 6 h post dose.

physchem [4] = settings: 26 °C, thermodynamic from solid
Dynamic vapor sorption = type: physicochemical
Procedure: The new physical form, Form I of CEM-101 is a crystalline form which may be described by its X-ray powder diffraction pattern. Peaks at approximate positions of about °2θ=8.8, 10.5, 13.2 and 18.6 are representative of this crystalline form. A more detailed analysis of the peaks is described in Tables 1-2 below. […] Water determination by Karl Fisher titration in typical lots is 0.6 to 1.1%. […] Form I of CEM-101 melts at about 200° C. by DSC analysis.
The new physical form, Form II of CEM-101 is a crystalline form which may be described by its X-ray powder diffraction pattern. Peaks at approximate positions of about °2θ=5.6, 7.9, 9.3, 11.7, 12.9 and 16.7 are representative of this crystalline form. A more detailed analysis of the peaks is described in Tables 3-4 below. Based on a single crystal X-ray determination and dynamic vapor sorption analysis, Form II appears to be a non-hygroscopic anhydrous crystalline form that melts at about 225° C. as a single endothermic event by DSC analysis. It is appreciated herein that non-hygroscopic solids, such as Form II described herein, may be advantageous in the preparation of pharmaceutical compositions. Such advantages include improved handling and stability properties in manufacturing, improved lot to lot quality control.

physchem [5] = settings: pH 6.03, saline or isotonic, thermodynamic from solid
in vivo [6] = settings: female, Balb/c, mouse, po; for AUC(0-t): AUC 0-24; for half-life: t½
in vivo [7] = settings: Balb/c, mouse, po
Procedure: as §1

AUC 0-24 ([1]; 5 mg/kg): 3.30
Cmax ([1]; 5 mg/kg): 1430 ng/mL
Tmax ([1]; 5 mg/kg): 0.6 h
t½ ([1]; 5 mg/kg): 1.32 h
AUC 0-24 ([1]; 10 mg/kg): 17.7
Cmax ([1]; 10 mg/kg): 4680 ng/mL
Tmax ([1]; 10 mg/kg): 2.4 h
t½ ([1]; 10 mg/kg): 3.6 h
AUC 0-24 ([1]; 20 mg/kg): 26.2
Cmax ([1]; 20 mg/kg): 6640 ng/mL
Tmax ([1]; 20 mg/kg): 1.6 h
t½ ([1]; 20 mg/kg): 2.1 h
change in color of the test material [2]: no observed change in color
AUCextrap ([3]; female): 24%
AUCextrap ([3]; male): 24%
solubility at 6 h (physchem [4]; pH 1.2, simulated gastric fluid): 4810 µg/mL (≈ 5690 µM)
solubility at 6 h (physchem [4]; pH 4, aqueous buffer): 4660 µg/mL (≈ 5510 µM)
solubility at 6 h (physchem [4]; pH 7.4, aqueous buffer): 2220 µg/mL (≈ 2630 µM)
solubility at 6 h (physchem [4]; pH 9.2, aqueous buffer): 1750 µg/mL (≈ 2070 µM)
hygroscopicity (Dynamic vapor sorption): partially hygroscopic
solubility at 6 h (physchem [5]): 1410 µg/mL (≈ 1670 µM)
AUC(0-t) (in vivo [6]; 5 mg/kg): 3160 ng·h/mL
Cmax (in vivo [6]; 5 mg/kg): 1540 ng/mL
Tmax (in vivo [6]; 5 mg/kg): 0.5 h
half-life (in vivo [6]; 5 mg/kg): 1.32 h
AUC(0-t) (in vivo [6]; 10 mg/kg): 17200 ng·h/mL
Cmax (in vivo [6]; 10 mg/kg): 4090 ng/mL
Tmax (in vivo [6]; 10 mg/kg): 2 h
half-life (in vivo [6]; 10 mg/kg): 2.95 h
AUC(0-t) (in vivo [6]; 20 mg/kg): 26700 ng·h/mL
Cmax (in vivo [6]; 20 mg/kg): 5910 ng/mL
Tmax (in vivo [6]; 20 mg/kg): 2 h
half-life (in vivo [6]; 20 mg/kg): 1.91 h
AUC(0-inf) (in vivo [7]; female, 20 mg/kg): 70000 ng·h/mL
AUC(0-t) (in vivo [7]; female, 20 mg/kg): 53000 ng·h/mL
Cmax (in vivo [7]; female, 20 mg/kg): 13600 ng/mL
Tmax (in vivo [7]; female, 20 mg/kg): 0.5 h
concentration at 0 h (in vivo [7]; female, 20 mg/kg): 0 ng/mL
concentration at 0.25 h (in vivo [7]; female, 20 mg/kg): 8200 ± 2400 ng/mL
concentration at 0.5 h (in vivo [7]; female, 20 mg/kg): 13600 ± 2000 ng/mL
concentration at 1 h (in vivo [7]; female, 20 mg/kg): 12000 ± 1700 ng/mL
concentration at 2 h (in vivo [7]; female, 20 mg/kg): 11300 ± 1400 ng/mL
concentration at 4 h (in vivo [7]; female, 20 mg/kg): 7700 ± 700 ng/mL
concentration at 6 h (in vivo [7]; female, 20 mg/kg): 4200 ± 400 ng/mL
AUC(0-t) (in vivo [7]; female, 100 mg/kg): 91000 ng·h/mL
Cmax (in vivo [7]; female, 100 mg/kg): 19500 ng/mL
Tmax (in vivo [7]; female, 100 mg/kg): 6 h
concentration at 0 h (in vivo [7]; female, 100 mg/kg): 0 ng/mL
concentration at 0.25 h (in vivo [7]; female, 100 mg/kg): 11900 ± 1700 ng/mL
concentration at 0.5 h (in vivo [7]; female, 100 mg/kg): 11600 ± 1600 ng/mL
concentration at 1 h (in vivo [7]; female, 100 mg/kg): 14700 ± 2300 ng/mL
concentration at 2 h (in vivo [7]; female, 100 mg/kg): 14100 ± 2900 ng/mL
concentration at 4 h (in vivo [7]; female, 100 mg/kg): 16000 ± 2300 ng/mL
concentration at 6 h (in vivo [7]; female, 100 mg/kg): 19500 ± 2300 ng/mL
AUC(0-inf) (in vivo [7]; male, 20 mg/kg): 46000 ng·h/mL
AUC(0-t) (in vivo [7]; male, 20 mg/kg): 35000 ng·h/mL
Cmax (in vivo [7]; male, 20 mg/kg): 9500 ng/mL
Tmax (in vivo [7]; male, 20 mg/kg): 1 h
concentration at 0 h (in vivo [7]; male, 20 mg/kg): 0 ng/mL
concentration at 0.25 h (in vivo [7]; male, 20 mg/kg): 5300 ± 1800 ng/mL
concentration at 0.5 h (in vivo [7]; male, 20 mg/kg): 7700 ± 1600 ng/mL
concentration at 1 h (in vivo [7]; male, 20 mg/kg): 9500 ± 900 ng/mL
concentration at 2 h (in vivo [7]; male, 20 mg/kg): 6400 ± 800 ng/mL
concentration at 4 h (in vivo [7]; male, 20 mg/kg): 5900 ± 600 ng/mL
concentration at 6 h (in vivo [7]; male, 20 mg/kg): 2600 ± 800 ng/mL
AUC(0-t) (in vivo [7]; male, 100 mg/kg): 83500 ng·h/mL
Cmax (in vivo [7]; male, 100 mg/kg): 17400 ng/mL
Tmax (in vivo [7]; male, 100 mg/kg): 4 h
concentration at 0 h (in vivo [7]; male, 100 mg/kg): 0 ng/mL
concentration at 0.25 h (in vivo [7]; male, 100 mg/kg): 11300 ± 2500 ng/mL
concentration at 0.5 h (in vivo [7]; male, 100 mg/kg): 10700 ± 3000 ng/mL
concentration at 1 h (in vivo [7]; male, 100 mg/kg): 13100 ± 3200 ng/mL
concentration at 2 h (in vivo [7]; male, 100 mg/kg): 13400 ± 3100 ng/mL
concentration at 4 h (in vivo [7]; male, 100 mg/kg): 17400 ± 2900 ng/mL
concentration at 6 h (in vivo [7]; male, 100 mg/kg): 12000 ± 2000 ng/mL
SMILES: CC[C@H]1OC(=O)[C@@](C)(F)C(=O)[C@H](C)[C@@H](O[C@@H]2O[C@H](C)C[C@H](N(C)C)[C@H]2O)[C@](C)(OC)C[C@@H](C)C(=O)[C@H](C)[C@H]2N(CCCCn3cc(-c4cccc(N)c4)nn3)C(=O)O[C@]12C [Form I, solithromycin]
